Holding throughout (assay): minimum inhibitory concentration (ETEST)
One assay relates to Neisseria gonorrhoeae. Conditions: isolate id (sample isolate): 19113052_3; population: MSM; antibiotic use in previous 6 months: No. In a few lines: (§1)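 Men who have sex with men and staff in Belgium gave oropharyngeal swabs, which were streaked on Columbia blood agar and modified Thayer-Martin agar and incubated 48 h at 35–37 °C in 5% CO2. Colonies that were Gram-negative and oxidase-positive were identified to species by matrix-assisted laser desorption/ionization time-of-flight mass spectrometry. For susceptibility testing, ETEST gradient strips were placed on GC agar and incubated 24 h at 36.5 °C in 5-7% CO2. Minimum inhibitory concentration is given in mg/L, and any off-scale value reflects the strip limit.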

In a further assay the test system is Neisseria oralis. Conditions: population: general population, antibiotic use in previous 6 months: No. The method, boiled down: as §1
In a further assay the test system is Neisseria elongata. Conditions: population: general population, antibiotic use in previous 6 months: No. In a few lines:
as §1

Another assay relates to Neisseria lactamica. Conditions: population: general population, antibiotic use in previous 6 months: No. The method, boiled down: as §1
The next assay concerns Neisseria cinerea. Conditions: population: general population, antibiotic use in previous 6 months: No. The method, boiled down: as §1
For another assay, the system named is Neisseria bacilliformis. Conditions: isolate id (sample isolate): Co000780_5; population: general population; antibiotic use in previous 6 months: No. In a few lines:
as §1

Where [1] appears, read: isolate id (sample isolate): Co000761_7.
[2] abbreviates: isolate id (sample isolate): Co000763_1.
Setting [3] is: isolate id (sample isolate): Co000766_2.
The mark [4] stands for this setting: isolate id (sample isolate): Co000770_1.
[5] abbreviates: isolate id (sample isolate): Co000774_1.
Where [6] appears, read: isolate id (sample isolate): Co000776_1.
The mark [7] stands for this setting: isolate id (sample isolate): Co000776_1.1.
Where [8] appears, read: isolate id (sample isolate): Co000779_2.
Where [9] appears, read: isolate id (sample isolate): Co000790_5.
The mark [10] stands for this setting: isolate id (sample isolate): Co000767_3.
[11] abbreviates: isolate id (sample isolate): Co000780_1.
[12] abbreviates: isolate id (sample isolate): Co000783_4.
Setting [13] is: isolate id (sample isolate): Co000761_1.
Setting [14] is: isolate id (sample isolate): Co000771_1.
Setting [15] is: isolate id (sample isolate): Co000769_3.
Where [16] appears, read: isolate id (sample isolate): Co000776_4.
[17] abbreviates: isolate id (sample isolate): Co000776_5.
[18] abbreviates: isolate id (sample isolate): Co000782_1.

≈ marks a conversion by molar mass, not a printed value.

Take `O=C(O)c1cn(C2CC2)c2cc(N3CCNCC3)c(F)cc2c1=O` [ciprofloxacin]: the minimum inhibitory concentration in the assay on Neisseria gonorrhoeae stood at 2 mg/L (≈ 6.04 µM); with Neisseria oralis (setting [1]), 0.016 mg/L (≈ 0.0483 µM); in the assay on Neisseria oralis (setting [2]), 0.012 mg/L (≈ 0.0362 µM); in the assay on Neisseria oralis (setting [3]), 0.023 mg/L (≈ 0.0694 µM); in the assay with Neisseria oralis (setting [4]), 0.016 mg/L (≈ 0.0483 µM); in the assay on Neisseria oralis (setting [5]), 0.023 mg/L (≈ 0.0694 µM). For the same molecule, the minimum inhibitory concentration in the assay with Neisseria oralis (setting [6]) was determined as 0.016 mg/L (≈ 0.0483 µM); in the assay on Neisseria oralis (setting [7]), 0.012 mg/L (≈ 0.0362 µM); with Neisseria oralis (setting [8]), 0.012 mg/L (≈ 0.0362 µM); in the assay with Neisseria oralis (setting [9]), 0.006 mg/L (≈ 0.0181 µM); in the assay on Neisseria elongata (setting [10]), 0.004 mg/L (≈ 0.0121 µM); in the assay on Neisseria elongata (setting [11]), 0.004 mg/L (≈ 0.0121 µM). For the same molecule, the minimum inhibitory concentration in the assay on Neisseria elongata (setting [12]) came to 0.023 mg/L (≈ 0.0694 µM); in the assay on Neisseria lactamica (setting [13]), 0.19 mg/L (≈ 0.573 µM); in the assay on Neisseria lactamica (setting [14]), 0.064 mg/L (≈ 0.193 µM); in the assay with Neisseria cinerea (setting [15]) it was 0.006 mg/L (≈ 0.0181 µM); with Neisseria cinerea (setting [16]), 0.032 mg/L (≈ 0.0966 µM); in the assay on Neisseria cinerea (setting [17]), 0.032 mg/L (≈ 0.0966 µM). Besides, the minimum inhibitory concentration in the assay on Neisseria cinerea (setting [18]) came out at 0.012 mg/L (≈ 0.0362 µM); in the assay on Neisseria bacilliformis it was 0.125 mg/L (≈ 0.377 µM).
In the case of `CC[C@H]1OC(=O)[C@H](C)[C@@H](O[C@H]2C[C@@](C)(OC)[C@@H](O)[C@H](C)O2)[C@H](C)[C@@H](O[C@@H]2O[C@H](C)C[C@H](N(C)C)[C@H]2O)[C@](C)(O)C[C@@H](C)CN(C)[C@H](C)[C@@H](O)[C@]1(C)O` [azithromycin], the minimum inhibitory concentration in the assay on Neisseria gonorrhoeae was found to be 0.125 mg/L (≈ 0.167 µM); with Neisseria oralis (setting [1]), 2 mg/L (≈ 2.67 µM); with Neisseria oralis (setting [2]), 1 mg/L (≈ 1.34 µM); with Neisseria oralis (setting [3]), 1.5 mg/L (≈ 2 µM); in the assay with Neisseria oralis (setting [4]) it was 2 mg/L (≈ 2.67 µM); in the assay on Neisseria oralis (setting [5]), 3 mg/L (≈ 4.01 µM). Moreover, the minimum inhibitory concentration is 4 mg/L (≈ 5.34 µM) in the assay on Neisseria oralis (setting [6]); 3 mg/L (≈ 4.01 µM) with Neisseria oralis (setting [7]); 4 mg/L (≈ 5.34 µM) in the assay on Neisseria oralis (setting [8]); 2 mg/L (≈ 2.67 µM) in the assay on Neisseria oralis (setting [9]); 0.5 mg/L (≈ 0.668 µM) with Neisseria elongata (setting [10]); 0.75 mg/L (≈ 1 µM) in the assay on Neisseria elongata (setting [11]). For the same molecule, the minimum inhibitory concentration with Neisseria elongata (setting [12]) is 0.38 mg/L (≈ 0.507 µM); in the assay on Neisseria lactamica (setting [13]), 2 mg/L (≈ 2.67 µM); in the assay on Neisseria lactamica (setting [14]), 1 mg/L (≈ 1.34 µM); in the assay with Neisseria cinerea (setting [15]), 1 mg/L (≈ 1.34 µM); in the assay with Neisseria cinerea (setting [16]), 24 mg/L (≈ 32 µM); in the assay with Neisseria cinerea (setting [17]) it was 32 mg/L (≈ 42.7 µM). Further, the minimum inhibitory concentration with Neisseria cinerea (setting [18]) and in the assay on Neisseria bacilliformis was 2 mg/L (≈ 2.67 µM) throughout.
In the case of `CO/N=C(\C(=O)N[C@@H]1C(=O)N2C(C(=O)O)=C(CSc3nc(=O)c(O)nn3C)CS[C@H]12)c1csc(N)n1` [ceftriaxone], the minimum inhibitory concentration in the assay on Neisseria gonorrhoeae was less than 0.016 mg/L; in the assay on Neisseria oralis (setting [1]) it was 0.064 mg/L (≈ 0.115 µM); in the assay with Neisseria oralis (setting [2]), 0.032 mg/L (≈ 0.0577 µM); in the assay on Neisseria oralis (setting [3]) it was 0.023 mg/L (≈ 0.0415 µM); in the assay with Neisseria oralis (setting [4]), 0.064 mg/L (≈ 0.115 µM); with Neisseria oralis (setting [5]), 0.032 mg/L (≈ 0.0577 µM). The minimum inhibitory concentration in the assay on Neisseria oralis (setting [6]) was determined as 0.047 mg/L (≈ 0.0847 µM); in the assay with Neisseria oralis (setting [7]), 0.047 mg/L (≈ 0.0847 µM); in the assay with Neisseria oralis (setting [8]) it was 0.094 mg/L (≈ 0.169 µM); with Neisseria oralis (setting [9]) it was 0.064 mg/L (≈ 0.115 µM); with Neisseria elongata (setting [10]), 0.19 mg/L (≈ 0.343 µM); in the assay with Neisseria elongata (setting [11]), 0.047 mg/L (≈ 0.0847 µM). For the same molecule, the minimum inhibitory concentration was 0.023 mg/L (≈ 0.0415 µM) in the assay with Neisseria elongata (setting [12]); less than 0.016 mg/L with Neisseria lactamica (setting [13]); less than 0.016 mg/L in the assay with Neisseria lactamica (setting [14]); less than 0.016 mg/L with Neisseria cinerea (setting [15]); less than 0.016 mg/L with Neisseria cinerea (setting [16]); less than 0.016 mg/L with Neisseria cinerea (setting [17]). For the same molecule, the minimum inhibitory concentration in the assay on Neisseria cinerea (setting [18]) was less than 0.016 mg/L; in the assay with Neisseria bacilliformis, 1.5 mg/L (≈ 2.7 µM).

For the origin of these results see the supplement of paper PMC8741786.
